Source: patent US9656962B2, “Ring-contracted morphinans and the use thereof” (Purdue Pharma L.P., priority 2013, dated 2017)

Assays:
Type in all cases: biochemical
μ-opioid receptor [1] = molecular target: T1, μ-opioid receptor (Homo sapiens (Human), UniProt P35372); experiment: μ-opioid receptor [35S]GTPγS functional assay, HEK-293 or CHO cells (Table 4)
Method in brief: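 Membranes from HEK-293, CHO or U-2 OS cells (or commercial) expressing recombinant μ receptor; 0.20 nM [35S]GTPγS, 3 mM GDP, saponin, in 100 mM NaCl/10 mM MgCl2/20 mM HEPES pH 7.4.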

κ-opioid receptor [2] = molecular target: T2, κ-opioid receptor (Homo sapiens (Human), UniProt P41145); experiment: κ-opioid receptor [35S]GTPγS functional assay, HEK-293 or CHO cells (Table 4)
δ-opioid receptor = δ-opioid receptor (Homo sapiens (Human), UniProt P41143); experiment: δ-opioid receptor [35S]GTPγS functional assay (Table 4)
Description: δ-Opioid Receptor Functional Assay Procedures: Functional [^35S]GTPγS binding assays were conducted as follows. δ opioid receptor membrane solution was prepared by sequentially adding final concentrations of 0.026 μg/μl δ membrane protein (Perkin Elmer, Shelton, Conn.), 10 μg/mL saponin, 3 μM GDP and 0.20 nM [^35S]GTPγS to binding buffer (100 mM NaCl, 10 mM MgCl2, 20 mM HEPES, pH 7.4) on ice. The prepared membrane solution (190 μl/well) was transferred to 96-shallow well polypropylene plates containing 10 μl of 20× concentrated stock solutions of agonist prepared in DMSO. Plates were incubated for 30 min at a temperature of about 25° C. with shaking Reactions were terminated by rapid filtration onto 96-well Unifilter GF/B filter plates (Perkin Elmer, Shelton, Conn.) using a 96-well tissue harvester (Packard) and followed by three filtration washes with 200 μl ice-cold binding buffer (10 mM NaH2PO4, 10 mM Na2HPO4, pH 7.4). Filter plates were subsequently dried at 50° C. for 1-2 hours. Fifty μl/well scintillation cocktail (Perkin Elmer, Shelton, Conn.) was added and plates were counted in a Packard Top-count for 1 min/well.
δ GTP Emax (%) is the maximal effect elicited by a compound relative to the effect elicited by met-enkephalin.

μ-opioid receptor [3] = molecular target: T1, μ-opioid receptor; experiment: μ-opioid receptor [35S]GTPγS functional assay, U-2 OS cells (Table 5)
Method in brief: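 Membranes (0.026 mg/mL) from cells expressing recombinant human μ-opioid receptor in a U-2 OS background were incubated with 0.20 nM [35S]GTPγS, 3 mM GDP and saponin in 20 mM HEPES pH 7.4, 100 mM NaCl, 10 mM MgCl2 for 30 min at about 25 °C. Filter-bound radioactivity counted; sigmoidal dose-response fits gave values, Emax relative to DAMGO.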

κ-opioid receptor [4] = molecular target: T2, κ-opioid receptor; experiment: κ-opioid receptor [35S]GTPγS functional assay, U-2 OS cells (Table 5)
Method in brief: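 [35S]GTPγS binding in κ receptor membranes (0.026 μg/μl protein) with 10 μg/mL saponin, 3 μM GDP and 0.20 nM [35S]GTPγS in pH 7.4 HEPES/NaCl/MgCl2 buffer. Agonist incubation lasted 30 min at about 25 °C, followed by filtration and scintillation counting. Emax is expressed relative to U69,593.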

Chain of δ-opioid receptor (P41143 whole entry, looked up): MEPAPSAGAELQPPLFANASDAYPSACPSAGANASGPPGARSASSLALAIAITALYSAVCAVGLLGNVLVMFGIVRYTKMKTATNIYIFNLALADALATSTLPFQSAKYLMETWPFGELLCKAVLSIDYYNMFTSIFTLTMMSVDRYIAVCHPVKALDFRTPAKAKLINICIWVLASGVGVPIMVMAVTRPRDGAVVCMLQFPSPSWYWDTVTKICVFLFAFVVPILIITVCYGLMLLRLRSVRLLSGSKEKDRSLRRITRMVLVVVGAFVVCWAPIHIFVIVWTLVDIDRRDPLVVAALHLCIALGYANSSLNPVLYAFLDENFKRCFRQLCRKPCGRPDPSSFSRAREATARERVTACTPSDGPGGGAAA

NC(=O)[C@@H]1C[C@]23CCN(CC4CC4)[C@H](Cc4ccc(O)cc42)[C@]3(O)C1 [Compound 31, (2R,3aS,4R,9bS)-12-(cyclopropylmethyl)-3a,8-dihydroxy-1,2,3,3a,4,5-hexahydro-4,9b-(epiminoethano)cyclopenta-[a]naphthalene-2-carboxamide]
Emax (μ-opioid receptor [1]; relative to DAMGO): 1% | EC50 (μ-opioid receptor [1]; μ GTP, bound given in μM): > 20 µM | Emax (κ-opioid receptor [2]; relative to U69,593): 35.3 ± 2.19% | EC50 (κ-opioid receptor [2]; κ GTP): 6.95 ± 0.97 nM | Emax (δ-opioid receptor; relative to met-enkephalin): 32 ± 3.49% | EC50 (δ-opioid receptor; δ GTP): 75.5 ± 13.6 nM | Emax (μ-opioid receptor [3]; relative to DAMGO): 49 ± 3.76% | EC50 (μ-opioid receptor [3]; μ GTP): 2.35 ± 0.32 nM | Emax (κ-opioid receptor [4]; relative to U69,593): 87.5 ± 5.04% | EC50 (κ-opioid receptor [4]; κ GTP): 2.62 ± 0.024 nM
